Data: patent US11713318B2, “Short conjugated oligoelectrolytes and uses thereof” (The Regents Of The University Of California, priority 2018, dated 2023)
Values after ≈ are worked out from the molar mass of the structure shown. Read-outs that look alike come from different tables or passages of the source.

Columns and labels:
[1] = system: A. baumannii CDC0290 (MDR); test: MIC against resistant strains, Tables 5a-5d; format: cell-based; details: Acinetobacter baumannii, n = 3
Description: (§1) Compounds described herein were evaluated for growth inhibition against a variety of bacterial species, including strains that have developed resistance to common antibacterial treatments, according to the procedure described herein, or by analogous procedures known to those skilled in the art. Resistant bacterial strains used for compound testing include methicillin-resistant S. aureus (MRSA), vancomycin resistant Enterococci (VRE) and various multi-drug resistant (MDR) strains commonly associated with hospital-acquired (nosocomial) infections, including, but not limited to A. baumannii, K. pnuemoniae, and E. cloacae.

[2] = system: K. pneumoniae ATCC BAA-2473 (MDR); test: MIC against resistant strains, Tables 5a-5d; format: cell-based; details: Klebsiella pneumoniae, ATCCBAA2473, n = 3
Description: as §1

[3] = system: S. aureus ATCC 33591 (MRSA); test: MIC against resistant strains, Tables 5a-5d; format: cell-based; details: Staphylococcus aureus, n = 3
Description: as §1

[4] = system: S. aureus ATCC BAA-1717 (MRSA); test: MIC against resistant strains, Tables 5a-5d; format: cell-based; details: Staphylococcus aureus, n = 3
Description: as §1

[5] = system: A. baumannii 1674627 (MDR); test: MIC against resistant strains, Tables 5a-5d; format: cell-based; details: Acinetobacter baumannii, n = 3
Description: as §1

E. coli ATCC25922 (WT) = test: MIC against resistant strains, Tables 5a-5d; format: cell-based; details: Escherichia coli, n = 3
Description: as §1

[6] = system: P. aeruginosa CDC0248 (MDR); test: MIC against resistant strains, Tables 5a-5d; format: cell-based; details: Pseudomonas aeruginosa, n = 3
Description: as §1

[7] = system: P. aeruginosa 1674623 (MDR); test: MIC against resistant strains, Tables 5a-5d; format: cell-based; details: Pseudomonas aeruginosa, n = 3
Description: as §1

E. faecium 1674620 (VRE) = test: MIC against resistant strains, Tables 5a-5d; format: cell-based; details: Enterococcus faecium, n = 3
Description: as §1

[8] = system: E. cloacae 1744299 (ESBL); test: MIC against resistant strains, Tables 5a-5d; format: cell-based; details: Enterobacter cloacae, n = 3
Description: as §1

[9] = system: K. pneumoniae CDC0010 (MDR); test: MIC against resistant strains, Tables 5a-5d; format: cell-based; details: Klebsiella pneumoniae, n = 3
Description: as §1

E. coli K12 (ATCC 47076) = test: MIC broth microdilution method, Table 3; details: Escherichia coli, ATCC47076
Cytotoxicity, MTT assay = format: cell-based
Description: (§2) Before removing the frozen cell stocks from liquid nitrogen, culture medium was pre-warmed to 37° C. The frozen tube was then removed from liquid nitrogen and placed into a 37° C. water bath and shaken gently to thaw the cell stock as quickly as possible. A small portion of the pre-warmed culture medium was added to the cell solution. The cell suspension was then centrifuged at 1000 r/min for 3 minutes. The supernatant was discarded and the cells were resuspended in fresh culture medium.
(§3) NIH 3T3 (ATCC CRL-1658) and Hep G2 (ATCC HB-8065) cells were cultured with DMEM+10% FBS in 100 mm dishes. Cells were lifted for subculture or testing when confluence reached ˜60% by treating with 1× trypsin (incubated for 3 min at 37° C.). J774 (ATCC TIB-67) cells were cultured with DMEM+10% FBS in 100 mm dishes. Cells were lifted for subculture or testing when confluence reached ˜80% using a cell scraper. RAW264.7 (ATCC TIB-71) cells were cultured with DMEM+10% heat-inactivated FBS+1% pen/strep in T75 flasks. Cells were lifted for subculture or testing when confluence reached ˜80% using a cell scraper.
(§4) • 1. Cells were lifted and resuspended in culture medium. The number of cells in the cell suspension was determined using an auto-cell counter: 10 μL of the cell suspension was mixed with 10 μL 1× trypan blue (filtered with 0.2 μm PES filter) and the mixture was loaded onto a cell counting slide. Based on the concentration of viable cells, the cell suspension was further diluted to achieve the desired density. • 2. Cells were seeded in 96 well plates by adding 100 μL final cell suspension column-by-column using a multichannel pipette (5000 cells/well for NIH 3T3, 10000 cells/well for Hep G2, J774 and RAW264.7). The outer wells were block with PBS to reduce the effects of evaporation. One column was filled with only culture medium as a blank. Cells were incubated overnight before adding the test articles. • 3. Test articles were dissolved in 1×PBS (or DMSO) to obtain stocks solution. Stock solutions were pre-warmed before use. […] Serial dilutions (2-fold) of the 10× solutions were made in sterile culture tubes by diluting in 1×PBS (8 dilutions to yield 9 test concentrations). 900 μL of culture media was added to each tube to obtain final drug solution containing 10% PBS (or less than 1% DMSO) for each experimental group. • 4. The original culture medium was gently removed from the 96-well plates using a pipette. 100 μL of the test article solutions prepared in Step 3 were added to rows 2-7 of each column to obtain six replicates for each concentration. Plates were then incubated for 24 hours. • 5. MTT solutions were prepared by dissolving commercial MTT powder in 1×PBS to a concentration of 5 mg/mL. After passing through a 0.22 μm PES filter, the MTT solution was divided into 1 mL portions in sterile centrifuge tubes and stored at −20° C. • 6. MTT stock solutions were removed from the freezer to thaw at room temperature. Before adding MTT solutions, cell cultures were visually inspected and imaged using a microscope (to use as a comparison with MTT results). 10 μL of the 5 mg/mL MTT solution was added to each well and the plate was incubated for 4 hours. • 7. After 4 h incubation, the culture medium/MT solution was removed gently using a pipette. 100 μL of DMSO was added to each well using a multichannel pipette. The 96-well plates were analyzed in a plate reader using the following method: shake for 5 minutes, wait for 30 seconds, and measure absorbance at 570 nm. • 8. Data processing: The average of background Abg was calculated from the blank column. All other data was first treated by subtracting Abg. The average A. and standard deviation Se of each experimental group and the average Ac and standard deviation Sc for control group (with pure culture medium incubation) were then calculated. The cell viability was determined as Ae/Ac×100% and corresponding error as Se/Ae×100%. Significant outliers in any experimental or control group were removed. […]

[10] = system: Hep G2 (ATCC HB-8065) cells; test: Cytotoxicity, MTT assay; format: cell-based; details: Hep G2, MTT, 24 hours incubation
Description: as §2, §3, §4

[11] = system: K. aerogenes (ATCC 13048); test: MIC broth microdilution method, Table 3; details: Klebsiella aerogenes, ATCC13048
[12] = system: S. epidermidis (ATCC 14990); test: MIC broth microdilution method, Table 3; details: Staphylococcus epidermidis, ATCC14990
J774 (ATCC TIB-67) cells = test: Cytotoxicity, MTT assay; format: cell-based; details: Mus musculus, MTT, 24 hours incubation, read-out: IC50
Description: as §2, §3, §4

[13] = system: NIH 3T3 (ATCC CRL-1658) cells; test: Cytotoxicity, MTT assay; format: cell-based; details: Mus musculus, NIH3T3; NIH 3T3; MTT, 24 hours incubation; read-out: IC50
Description: as §2, §3, §4

HRPTEpiC = test: Cytotoxicity tested by Eurofins Pharma Discovery Services; format: cell-based; details: data provided by Eurofins, read-out: IC50
Hep G2 cells = test: as above; format: cell-based; details: Homo sapiens, HepG2; Hep G2; data provided by Eurofins; read-out: IC50
[14] = system: primary human hepatocytes; test: as above; format: cell-based; details: Hepatocyte, data provided by Eurofins, read-out: IC50
[15] = Homo sapiens, HepG2, 24 h, read-out: IC50
[16] = human, Hep G2 (ATCC HB-8065) cells, Hep G2, at the concentration given as IC50 bound, read-out: cell viability at the highest or lowest test concentration

Structure (SMILES) | MIC [1] [µg/mL] | MIC [2] [µg/mL] | MIC [3] [µg/mL] | MIC [4] [µg/mL] | MIC [5] [µg/mL] | MIC (E. coli ATCC25922 (WT)) [µg/mL] | MIC [6] [µg/mL] | MIC [7] [µg/mL] | MIC (E. faecium 1674620 (VRE)) [µg/mL] | MIC [8] [µg/mL] | MIC [9] [µg/mL] | MIC (E. coli K12 (ATCC 47076)) [µg/mL] | IC50 [10, 15] [µg/mL] | MIC [11] [µg/mL] | MIC [12] [µg/mL] | IC50 (J774 (ATCC TIB-67) cells) [µg/mL] | IC50 [13] [µg/mL] | viability at 24 h (Cytotoxicity, MTT assay; [16]) [%] | other results
CCCCCC[N+](C)(C)CCCOc1cc(/C=C/c2ccc(/C=C/c3cc(OCCC[N+](C)(C)CCCCCC)cc(OCCC[N+](C)(C)CCCCCC)c3)cc2)cc(OCCC[N+](C)(C)CCCCCC)c1 [Formula BB] | 2 | 2 | 2 | 1 | 2 | 2 | 32 | 16 | 0.25 | 2 | 2 | 8 | 15 |  |  |  |  |  | viability at 24 h (Cytotoxicity, MTT assay; human, Hep G2 (ATCC HB-8065) cells, Hep G2, at concentrations efficacious against bacterial species (0.25-4 μg/mL), read-out: cell viability): ~90%; IC50 [10]: 15.1 µg/mL
CO/N=C(\C(=O)N[C@@H]1C(=O)N2C(C(=O)[O-])=C(C[n+]3cccc4c3CCC4)CS[C@H]12)c1csc(N)n1 [Cefpirome, reference compound] |  |  |  |  |  |  |  |  |  |  |  | 0.0625 (≈ 0.121 µM) | > 128 | 0.25 (≈ 0.486 µM) | 1 (≈ 1.94 µM) | > 128 | > 128 | 101 | viability at 24 h (Cytotoxicity, MTT assay; mouse, J774 (ATCC TIB-67) cells, at the concentration given as IC50 bound, read-out: cell viability at the highest or lowest test concentration): 107%; viability at 24 h (Cytotoxicity, MTT assay; mouse, NIH 3T3 (ATCC CRL-1658) cells, NIH 3T3, at the concentration given as IC50 bound, read-out: cell viability at the highest or lowest test concentration): 81%
CCC[N+](C)(C)CCCCOc1cc(/C=C/c2ccc(/C=C/c3cc(OCCCC[N+](C)(C)CCC)cc(OCCCC[N+](C)(C)CCC)c3)cc2)cc(OCCCC[N+](C)(C)CCC)c1 [Formula Q] | 64 | 8 | 1 | 1 | 64 | 4 | > 64 | > 64 | 1 | 4 | 32 | 8 | > 128 |  |  |  |  | 91 | 
CCCCCC[N+](C)(C)CCCCOc1cc(/C=C/c2ccc(/C=C/c3cc(OCCCC[N+](C)(C)CCCCCC)cc(OCCCC[N+](C)(C)CCCCCC)c3)cc2)cc(OCCCC[N+](C)(C)CCCCCC)c1.[I-].[I-].[I-].[I-] [Formula T] | 4 | 4 | 0.5 | 1 | 2 | 2 | 32 | 16 | 0.25 | 2 | 4 | 4 | 15.3 | 8 | 1 | 4.6 | 12.4 |  | IC50 (HRPTEpiC): 2.8 µg/mL; IC50 (Hep G2 cells): 11.6 µg/mL; IC50 [14]: 31.8 µg/mL
